What follows are compounds tested against T1, LHRH rat pituitary receptor (Rattus norvegicus, UniProt P30969) (assay: LHRH rat pituitary receptor binding (pKI)). Details: receptor binding affinity, negative logarithm of the equilibrium dissociation constants.
T1 construct: from tissue; host or cells: rat pituitary
T1 sequence (P30969 1-327): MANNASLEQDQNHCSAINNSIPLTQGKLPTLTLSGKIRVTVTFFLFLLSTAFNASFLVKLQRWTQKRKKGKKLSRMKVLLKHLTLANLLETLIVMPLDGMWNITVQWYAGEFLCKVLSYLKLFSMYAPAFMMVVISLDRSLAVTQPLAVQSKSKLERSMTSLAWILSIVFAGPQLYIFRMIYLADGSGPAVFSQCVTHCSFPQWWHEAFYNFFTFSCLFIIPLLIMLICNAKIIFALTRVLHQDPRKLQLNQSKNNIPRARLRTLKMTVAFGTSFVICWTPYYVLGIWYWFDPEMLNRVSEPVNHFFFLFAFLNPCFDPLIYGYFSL
Experimental: Representative compounds of the present invention were evaluated in in vitro tests for LHRH rat pituitary receptor binding (pKI) and for LH inhibition from rat pituitary cells for antagonist potency (pA2). The tests employed the methods detailed in F. Haviv, et al. J. Med. Chem., 32: 2340-2344 (1989). The receptor binding affinity (pKI) is the negative logarithm of the equilibrium dissociation constants.

First: CC[C@H]1OC(=O)[C@H](C)[C@@H](OC(=O)N2C[C@@H](C)OC2=O)[C@H](C)[C@@H](O[C@@H]2O[C@H](C)C[C@H](N(C)CC3CC3)[C@H]2O)[C@](C)(OC)C[C@@H](C)C(=O)[C@H](C)[C@H]2N(CCc3ccc(Cl)c(Cl)c3)C(=O)O[C@]12C [Example 39, 11-Deoxy-11-[carboxy(3,4-dichlorophenethyl)amino]-3-O-[5-(R)-methyl-oxazolidin-2-one]carbamoyl-5-O-(3'-N-desmethyl-3'-N-cyclopropylmethyl)desosaminyl-6-O-methyl-erythronolide A 11,12-(cyclic carbamate)]
Second: CC[C@H]1OC(=O)[C@H](C)[C@@H](OC(=O)N2C(=O)SC[C@@H]2C)[C@H](C)[C@@H](O[C@@H]2O[C@H](C)C[C@H](N(C)CC3CC3)[C@H]2O)[C@](C)(OC)C[C@@H](C)C(=O)[C@H](C)[C@H]2N(CCc3ccc(Cl)c(Cl)c3)C(=O)O[C@]12C [Example 40, 11-Deoxy-11-[carboxy(3,4-dichlorophenethyl)amino]-3-O-[4-(S)-methyl-thiazolidin-2-one]carbamoyl-5-O-(3'-N-desmethyl-3'-N-cyclopropylmethyl)desosaminyl-6-O-methyl-erythronolide A 11,12-(cyclic carbamate)]
The Ki of the first is 2.9-fold lower: 2.82 nM for the first, 8.13 nM for the second. The first binds more tightly here.

Compared with `CC[C@H]1OC(=O)[C@H](C)[C@@H](OC(=O)N2C(=S)OC[C@@H]2C)[C@H](C)[C@@H](O[C@@H]2O[C@H](C)C[C@H](N(C)CC3CC3)[C@H]2O)[C@](C)(OC)C[C@@H](C)C(=O)[C@H](C)[C@H]2N(CCc3ccc(Cl)c(Cl)c3)C(=O)O[C@]12C` [Example 41, 11-Deoxy-11-[carboxy(3,4-dichlorophenethyl)amino]-3-O-[4-(S)-methyl-oxazolidin-2-thione]carbamoyl-5-O-(3'-N-desmethyl-3'-N-cyclopropylmethyl)desosaminyl-6-O-methyl-erythronolide A 11,12-(cyclic carbamate)], `CC[C@H]1OC(=O)[C@H](C)[C@@H](OC(=O)N2C(=O)OC[C@@H]2C)[C@H](C)[C@@H](O[C@@H]2O[C@H](C)C[C@H](N(C)CC3(C)CC3)[C@H]2O)[C@](C)(OC)C[C@@H](C)C(=O)[C@H](C)[C@H]2N(CCc3ccc(Cl)c(Cl)c3)C(=O)O[C@]12C` [Example 54, 11-Deoxy-11-[carboxy(3,4-dichlorophenethyl)amino]-3-O-[4-(S)-methyl-oxazolidin-2-one]carbamoyl-5-O-[3'-N-desmethyl-3'-N-(1-methyl-cyclopropyl)methyl]desosaminyl-6-O-methyl-erythronolide A 11,12-(cyclic carbamate)] is 6.9-fold lower in Ki: 10.2 nM for the first, 1.48 nM for the second. The second binds more tightly here.

`CC[C@H]1OC(=O)[C@H](C)[C@@H](OC(=O)N2C(=O)OC[C@@H]2C)[C@H](C)[C@@H](O[C@@H]2O[C@H](C)C[C@H](N(CC3CC3)CC3CC3)[C@H]2O)[C@](C)(OC)C[C@@H](C)C(=O)[C@H](C)[C@H]2N(CCc3ccc(Cl)c(Cl)c3)C(=O)O[C@]12C` [Example 42, 11-Deoxy-11-[carboxy(3,4-dichlorophenethyl)amino]-3-O-[4-(S)-methyl-oxazolidin-2-one]carbamoyl-5-O-(3'-bis-N-desmethyl-3'-bis-N-cyclopropylmethyl)desosaminyl-6-O-methyl-erythronolide A 11,12-(cyclic carbamate)] and `CC[C@H]1OC(=O)[C@H](C)[C@@H](OC(=O)N2C(=O)OC[C@@H]2C)[C@H](C)[C@@H](O[C@@H]2O[C@H](C)C[C@H](N(CC3CC3)CC3CC3)[C@H]2O)[C@](C)(OC)C[C@@H](C)C(=O)[C@H](C)[C@H]2N(CCc3ccc(F)c(Cl)c3)C(=O)O[C@]12C` [Example 43, 11-Deoxy-11-[carboxy(3-chloro-4-fluorophenethyl)amino]-3-O-[4-(S)-methyl-oxazolidin-2-one]carbamoyl-5-O-(3'-bis-N-desmethyl-3'-bis-N-cyclopropylmethyl)desosaminyl-6-O-methyl-erythronolide A 11,12-(cyclic carbamate)] are within 1.5-fold of each other in Ki: 0.661 nM for the first, 0.692 nM for the second.

Going from `CC[C@H]1OC(=O)[C@H](C)[C@@H](OC(=O)N2C(=O)OC[C@@H]2C)[C@H](C)[C@@H](O[C@@H]2O[C@H](C)C[C@H](N(CC3CC3)CC3CC3)[C@H]2O)[C@](C)(OC)C[C@@H](C)C(=O)[C@H](C)[C@H]2N(CCc3ccc(Cl)c(F)c3)C(=O)O[C@]12C` [Example 44, 11-Deoxy-11-[carboxy(4-chloro-3-fluorophenethyl)amino]-3-O-[4-(S)-methyl-oxazolidin-2-one]carbamoyl-5-O-(3'-bis-N-desmethyl-3'-bis-N-cyclopropylmethyl)desosaminyl-6-O-methyl-erythronolide A 11,12-(cyclic carbamate)] to `CC[C@H]1OC(=O)[C@H](C)[C@@H](OC(=O)N2C(=O)OC[C@@H]2C)[C@H](C)[C@@H](O[C@@H]2O[C@H](C)C[C@H](N(CC3CC3)C(C)C)[C@H]2O)[C@](C)(OC)C[C@@H](C)C(=O)[C@H](C)[C@H]2N(CCc3ccc(F)c(Cl)c3)C(=O)O[C@]12C` [Example 56, 11-Deoxy-11-[carboxy(3-chloro-4-fluorophenethyl)amino]-3-O-[4-(S)-methyl-oxazolidin-2-one]carbamoyl-5-O-(3'-bis-N-desmethyl-3'-N-cyclopropylmethyl-3'-N-isopropyl)desosaminyl-6-O-methyl-erythronolide A 11,12-(cyclic carbamate)], the Ki falls from 3.16 nM to 0.12 nM (26-fold). The second binds more tightly here.

Compared with `CC[C@H]1OC(=O)[C@H](C)[C@@H](OC(=O)N2C(=O)OC[C@@H]2C)[C@H](C)[C@@H](O[C@@H]2O[C@H](C)C[C@H](NCC3CC3)[C@H]2O)[C@](C)(OC)C[C@@H](C)C(=O)[C@H](C)[C@H]2N(CCc3ccc(Cl)c(Cl)c3)C(=O)O[C@]12C` [Example 45, 11-Deoxy-11-[carboxy(3,4-dichlorophenethyl)amino]-3-O-[4-(S)-methyl-oxazolidin-2-one]carbamoyl-5-O-(3'-bis-N-desmethyl-3'-N-cyclopropylmethyl)desosaminyl-6-O-methyl-erythronolide A 11,12-(cyclic carbamate)], `CC[C@H]1OC(=O)[C@H](C)[C@@H](OC(=O)N2C(=O)OC[C@@H]2C)[C@H](C)[C@@H](O[C@@H]2O[C@H](C)C[C@H](N(C)CC3(C)CC3)[C@H]2O)[C@](C)(OC)C[C@@H](C)C(=O)[C@H](C)[C@H]2N(CCc3ccc(F)c(Cl)c3)C(=O)O[C@]12C` [Example 55, 11-Deoxy-11-[carboxy(3-chloro-4-fluorophenethyl)amino]-3-O-[4-(S)-methyl-oxazolidin-2-one]carbamoyl-5-O-[3'-N-desmethyl-3'-N-(1-methyl-cyclopropyl)methyl]desosaminyl-6-O-methyl-erythronolide A 11,12-(cyclic carbamate)] is 26-fold lower in Ki: 8.13 nM for the first, 0.316 nM for the second. The second binds more tightly here.
